Experimental data from PMC9532703, “A novel small molecule RK-019 inhibits FGFR2-amplification gastric cancer cell proliferation and induces apoptosis in vitro and in vivo” (Frontiers in Pharmacology, 2022).

Columns and labels:
Assay in all cases: Kinase selectivity panel
Format in all cases: biochemical
ASK1(h) = target: T1, ASK1(h) (Homo sapiens, UniProt Q99683); details: read-out: Inhibition(%) @ 1 µM RK-019
T1 construct: purchased Eurofins Discovery Services (KinaseProfiler)
Procedure, shortened: (§1)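 ATP-site competition binding, in vitro; recombinant human kinase, single concentration 1 µM; % inhibition read-out.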

CDK3/cyclinE(h) = target: T2, CDK3/cyclinE(h) (Homo sapiens, UniProt Q00526); details: read-out: Inhibition(%) @ 1 µM RK-019
T2 construct: purchased Eurofins Discovery Services (KinaseProfiler)
Procedure, shortened: as §1

CLK4(h) = target: T3, CLK4(h) (Homo sapiens, UniProt Q9HAZ1); details: read-out: Inhibition(%) @ 1 µM RK-019
T3 construct: purchased Eurofins Discovery Services (KinaseProfiler)
Procedure, shortened: as §1

DYRK2(h) = target: T4, DYRK2(h) (Homo sapiens, UniProt Q92630); details: read-out: Inhibition(%) @ 1 µM RK-019
T4 construct: purchased Eurofins Discovery Services (KinaseProfiler)
Procedure, shortened: as §1

EGFR(T790M,L858R)(h) = target: T5, EGFR(T790M,L858R)(h) (Homo sapiens, UniProt P00533, L858R/T790M); details: read-out: Inhibition(%) @ 1 µM RK-019
T5 construct: purchased Eurofins Discovery Services (KinaseProfiler)
Procedure, shortened: as §1

EphA7(h) = target: T6, EphA7(h) (Homo sapiens, UniProt Q15375); details: read-out: Inhibition(%) @ 1 µM RK-019
T6 construct: purchased Eurofins Discovery Services (KinaseProfiler)
Procedure, shortened: as §1

FGFR1(h) = target: T7, FGFR1(h) (Homo sapiens, UniProt P11362)
T7 construct: purchased Eurofins Discovery Services (KinaseProfiler)
T7 sequence (P11362 22-822): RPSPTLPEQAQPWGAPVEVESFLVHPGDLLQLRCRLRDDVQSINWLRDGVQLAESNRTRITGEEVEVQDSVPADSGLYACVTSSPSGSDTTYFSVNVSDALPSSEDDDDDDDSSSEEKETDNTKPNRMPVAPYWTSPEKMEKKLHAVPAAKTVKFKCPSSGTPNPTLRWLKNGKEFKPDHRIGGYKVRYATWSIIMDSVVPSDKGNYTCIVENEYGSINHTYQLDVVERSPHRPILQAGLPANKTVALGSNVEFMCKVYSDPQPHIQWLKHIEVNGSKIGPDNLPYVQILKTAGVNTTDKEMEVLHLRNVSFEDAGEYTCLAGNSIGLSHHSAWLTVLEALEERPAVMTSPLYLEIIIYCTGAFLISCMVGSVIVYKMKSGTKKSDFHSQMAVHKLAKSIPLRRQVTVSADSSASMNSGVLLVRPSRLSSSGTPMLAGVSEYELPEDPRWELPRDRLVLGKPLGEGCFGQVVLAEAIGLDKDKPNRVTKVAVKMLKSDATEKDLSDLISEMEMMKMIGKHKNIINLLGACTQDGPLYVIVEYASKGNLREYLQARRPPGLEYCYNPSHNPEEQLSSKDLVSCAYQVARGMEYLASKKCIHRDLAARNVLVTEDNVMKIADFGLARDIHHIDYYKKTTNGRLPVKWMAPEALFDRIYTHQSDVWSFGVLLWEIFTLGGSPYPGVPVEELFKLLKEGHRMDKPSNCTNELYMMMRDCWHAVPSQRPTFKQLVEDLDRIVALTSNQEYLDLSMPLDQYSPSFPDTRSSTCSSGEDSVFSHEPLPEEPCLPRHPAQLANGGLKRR
Procedure, shortened: as §1

FGFR2(h) = target: T8, FGFR2(h) (Homo sapiens, UniProt P21802)
T8 construct: purchased Eurofins Discovery Services (KinaseProfiler)
T8 sequence (P21802 22-821): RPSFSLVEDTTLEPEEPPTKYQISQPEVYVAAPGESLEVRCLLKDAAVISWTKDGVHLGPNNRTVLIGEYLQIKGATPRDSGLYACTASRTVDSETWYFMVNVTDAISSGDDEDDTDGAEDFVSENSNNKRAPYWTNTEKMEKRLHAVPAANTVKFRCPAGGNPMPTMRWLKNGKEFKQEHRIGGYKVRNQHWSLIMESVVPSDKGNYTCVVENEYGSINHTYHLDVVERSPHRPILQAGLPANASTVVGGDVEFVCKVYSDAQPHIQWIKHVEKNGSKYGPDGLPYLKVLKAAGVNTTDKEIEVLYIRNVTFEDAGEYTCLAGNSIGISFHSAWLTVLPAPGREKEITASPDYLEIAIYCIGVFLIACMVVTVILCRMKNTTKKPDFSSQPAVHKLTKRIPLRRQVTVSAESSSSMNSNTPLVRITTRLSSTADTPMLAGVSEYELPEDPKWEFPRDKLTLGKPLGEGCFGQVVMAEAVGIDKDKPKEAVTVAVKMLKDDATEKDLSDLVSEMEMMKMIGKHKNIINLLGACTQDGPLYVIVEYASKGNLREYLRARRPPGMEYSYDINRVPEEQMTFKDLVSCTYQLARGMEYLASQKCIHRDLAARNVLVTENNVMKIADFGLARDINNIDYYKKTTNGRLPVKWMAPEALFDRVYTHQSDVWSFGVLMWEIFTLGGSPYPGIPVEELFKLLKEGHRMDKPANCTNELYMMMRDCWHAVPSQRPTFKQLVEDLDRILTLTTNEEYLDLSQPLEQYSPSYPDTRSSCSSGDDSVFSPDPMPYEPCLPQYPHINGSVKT
Procedure, shortened: as §1

GRK3(h) = target: T9, GRK3(h) (Homo sapiens, UniProt P35626); details: read-out: Inhibition(%) @ 1 µM RK-019
T9 construct: purchased Eurofins Discovery Services (KinaseProfiler)
Procedure, shortened: as §1

IKKα(h) = target: T10, IKKα(h) (Homo sapiens, UniProt O15111); details: read-out: Inhibition(%) @ 1 µM RK-019
T10 construct: purchased Eurofins Discovery Services (KinaseProfiler)
T10 sequence (O15111 whole entry): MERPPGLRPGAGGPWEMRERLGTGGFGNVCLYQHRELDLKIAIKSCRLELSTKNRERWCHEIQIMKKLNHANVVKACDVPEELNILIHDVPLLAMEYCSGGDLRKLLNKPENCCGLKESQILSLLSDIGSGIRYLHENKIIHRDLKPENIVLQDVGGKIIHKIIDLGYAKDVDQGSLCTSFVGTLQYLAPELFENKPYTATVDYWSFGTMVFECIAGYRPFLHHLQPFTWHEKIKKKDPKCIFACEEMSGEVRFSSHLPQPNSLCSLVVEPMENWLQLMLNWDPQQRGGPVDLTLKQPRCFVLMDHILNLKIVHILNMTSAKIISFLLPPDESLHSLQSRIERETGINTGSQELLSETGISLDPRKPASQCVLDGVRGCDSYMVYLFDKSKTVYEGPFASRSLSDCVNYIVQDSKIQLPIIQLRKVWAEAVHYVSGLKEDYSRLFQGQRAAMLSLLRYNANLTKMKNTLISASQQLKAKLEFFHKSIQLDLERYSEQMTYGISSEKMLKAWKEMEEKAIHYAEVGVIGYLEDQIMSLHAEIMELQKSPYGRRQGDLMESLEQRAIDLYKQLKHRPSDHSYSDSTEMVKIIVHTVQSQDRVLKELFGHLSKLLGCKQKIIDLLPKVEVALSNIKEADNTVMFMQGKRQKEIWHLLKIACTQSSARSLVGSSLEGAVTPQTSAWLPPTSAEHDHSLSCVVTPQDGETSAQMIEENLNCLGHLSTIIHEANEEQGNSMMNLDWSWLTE
Procedure, shortened: as §1

MLK3(h) = target: T11, MLK3(h) (Homo sapiens, UniProt Q16584); details: read-out: Inhibition(%) @ 1 µM RK-019
T11 construct: purchased Eurofins Discovery Services (KinaseProfiler)
Procedure, shortened: as §1

MSK2(h) = target: T12, MSK2(h) (Homo sapiens, UniProt O75676); details: read-out: Inhibition(%) @ 1 µM RK-019
T12 construct: purchased Eurofins Discovery Services (KinaseProfiler)
Procedure, shortened: as §1

MST1(h) = target: T13, MST1(h) (Homo sapiens, UniProt Q13043); details: read-out: Inhibition(%) @ 1 µM RK-019
T13 construct: purchased Eurofins Discovery Services (KinaseProfiler)
Procedure, shortened: as §1

MST2(h) = target: T14, MST2(h) (Homo sapiens, UniProt Q13188); details: read-out: Inhibition(%) @ 1 µM RK-019
T14 construct: purchased Eurofins Discovery Services (KinaseProfiler)
Procedure, shortened: as §1

MST3(h) = target: T15, MST3(h) (Homo sapiens, UniProt Q9Y6E0); details: read-out: Inhibition(%) @ 1 µM RK-019
T15 construct: purchased Eurofins Discovery Services (KinaseProfiler)
Procedure, shortened: as §1

Met(h) = target: T16, Met(h) (Homo sapiens, UniProt P08581); details: read-out: Inhibition(%) @ 1 µM RK-019
T16 construct: purchased Eurofins Discovery Services (KinaseProfiler)
Procedure, shortened: as §1

NEK4(h) = target: T17, NEK4(h) (Homo sapiens, UniProt P51957); details: read-out: Inhibition(%) @ 1 µM RK-019
T17 construct: purchased Eurofins Discovery Services (KinaseProfiler)
Procedure, shortened: as §1

NLK(h) = target: T18, NLK(h) (Homo sapiens, UniProt Q9UBE8); details: read-out: Inhibition(%) @ 1 µM RK-019
T18 construct: purchased Eurofins Discovery Services (KinaseProfiler)
Procedure, shortened: as §1

PAK6(h) = target: T19, PAK6(h) (Homo sapiens, UniProt Q9NQU5); details: read-out: Inhibition(%) @ 1 µM RK-019
T19 construct: purchased Eurofins Discovery Services (KinaseProfiler)
Procedure, shortened: as §1

PDGFRα(D842V)(h) = target: T20, PDGFRα(D842V)(h) (Homo sapiens, UniProt P16234, D842V); details: read-out: Inhibition(%) @ 1 µM RK-019
T20 construct: purchased Eurofins Discovery Services (KinaseProfiler)
Procedure, shortened: as §1

PDGFRβ(h) = target: T21, PDGFRβ(h) (Homo sapiens, UniProt P09619); details: read-out: Inhibition(%) @ 1 µM RK-019
T21 construct: purchased Eurofins Discovery Services (KinaseProfiler)
Procedure, shortened: as §1

PDHK2(h) = target: T22, PDHK2(h) (Homo sapiens, UniProt Q15119); details: read-out: Inhibition(%) @ 1 µM RK-019
T22 construct: purchased Eurofins Discovery Services (KinaseProfiler)
Procedure, shortened: as §1

PRK1(h) = target: T23, PRK1(h) (Homo sapiens, UniProt Q16512); details: read-out: Inhibition(%) @ 1 µM RK-019
T23 construct: purchased Eurofins Discovery Services (KinaseProfiler)
Procedure, shortened: as §1

PRKG2(h) = target: T24, PRKG2(h) (Homo sapiens, UniProt Q13237); details: read-out: Inhibition(%) @ 1 µM RK-019
T24 construct: purchased Eurofins Discovery Services (KinaseProfiler)
Procedure, shortened: as §1

Pim-2(h) = target: T25, Pim-2(h) (Homo sapiens, UniProt Q9P1W9); details: read-out: Inhibition(%) @ 1 µM RK-019
T25 construct: purchased Eurofins Discovery Services (KinaseProfiler)
Procedure, shortened: as §1

Pim-3(h) = target: T26, Pim-3(h) (Homo sapiens, UniProt Q86V86); details: read-out: Inhibition(%) @ 1 µM RK-019
T26 construct: purchased Eurofins Discovery Services (KinaseProfiler)
Procedure, shortened: as §1

SAPK2b(h) = target: T27, SAPK2b(h) (Homo sapiens, UniProt Q15759); details: read-out: Inhibition(%) @ 1 µM RK-019
T27 construct: purchased Eurofins Discovery Services (KinaseProfiler)
T27 sequence (Q15759 whole entry): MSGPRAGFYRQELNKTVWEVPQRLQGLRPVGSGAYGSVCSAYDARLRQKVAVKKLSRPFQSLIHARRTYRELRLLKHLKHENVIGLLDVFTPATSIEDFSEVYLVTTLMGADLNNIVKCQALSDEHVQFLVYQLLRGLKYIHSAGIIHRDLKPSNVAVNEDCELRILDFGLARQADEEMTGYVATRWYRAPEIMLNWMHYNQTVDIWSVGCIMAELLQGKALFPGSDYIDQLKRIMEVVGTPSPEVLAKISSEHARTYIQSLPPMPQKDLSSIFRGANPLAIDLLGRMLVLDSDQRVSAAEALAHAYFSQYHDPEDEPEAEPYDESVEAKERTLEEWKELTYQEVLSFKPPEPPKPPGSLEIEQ
Procedure, shortened: as §1

STK25(h) = target: T28, STK25(h) (Homo sapiens, UniProt O00506); details: read-out: Inhibition(%) @ 1 µM RK-019
T28 construct: purchased Eurofins Discovery Services (KinaseProfiler)
Procedure, shortened: as §1

TSSK2(h) = target: T29, TSSK2(h) (Homo sapiens, UniProt Q96PF2); details: read-out: Inhibition(%) @ 1 µM RK-019
T29 construct: purchased Eurofins Discovery Services (KinaseProfiler)
Procedure, shortened: as §1

Tec(h) activated = target: T30, Tec(h) activated (Homo sapiens, UniProt P42680); details: read-out: Inhibition(%) @ 1 µM RK-019
T30 construct: purchased Eurofins Discovery Services (KinaseProfiler)
T30 sequence (P42680 whole entry): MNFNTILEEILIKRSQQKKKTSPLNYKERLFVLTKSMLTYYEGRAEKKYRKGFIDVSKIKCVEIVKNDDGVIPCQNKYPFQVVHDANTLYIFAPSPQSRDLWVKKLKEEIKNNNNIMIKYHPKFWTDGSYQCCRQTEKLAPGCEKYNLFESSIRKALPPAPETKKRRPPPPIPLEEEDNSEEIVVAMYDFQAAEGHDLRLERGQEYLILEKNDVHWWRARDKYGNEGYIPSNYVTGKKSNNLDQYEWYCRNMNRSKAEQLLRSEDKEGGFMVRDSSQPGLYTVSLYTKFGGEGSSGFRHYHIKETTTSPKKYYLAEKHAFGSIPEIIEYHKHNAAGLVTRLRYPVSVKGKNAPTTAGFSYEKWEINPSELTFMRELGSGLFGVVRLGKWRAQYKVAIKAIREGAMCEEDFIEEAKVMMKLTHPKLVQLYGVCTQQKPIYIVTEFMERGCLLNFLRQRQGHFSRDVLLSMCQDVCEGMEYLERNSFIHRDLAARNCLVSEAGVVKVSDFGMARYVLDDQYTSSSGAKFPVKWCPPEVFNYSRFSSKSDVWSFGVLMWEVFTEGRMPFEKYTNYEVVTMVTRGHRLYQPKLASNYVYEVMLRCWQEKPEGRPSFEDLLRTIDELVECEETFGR
Procedure, shortened: as §1

WNK1(h) = target: T31, WNK1(h) (Homo sapiens, UniProt Q9H4A3); details: read-out: Inhibition(%) @ 1 µM RK-019
T31 construct: purchased Eurofins Discovery Services (KinaseProfiler)
Procedure, shortened: as §1

WNK3(h) = target: T32, WNK3(h) (Homo sapiens, UniProt Q9BYP7); details: read-out: Inhibition(%) @ 1 µM RK-019
T32 construct: purchased Eurofins Discovery Services (KinaseProfiler)
Procedure, shortened: as §1

Wee1B(h) = target: T33, Wee1B(h) (Homo sapiens, UniProt P0C1S8); details: read-out: Inhibition(%) @ 1 µM RK-019
T33 construct: purchased Eurofins Discovery Services (KinaseProfiler)
T33 sequence (P0C1S8 whole entry): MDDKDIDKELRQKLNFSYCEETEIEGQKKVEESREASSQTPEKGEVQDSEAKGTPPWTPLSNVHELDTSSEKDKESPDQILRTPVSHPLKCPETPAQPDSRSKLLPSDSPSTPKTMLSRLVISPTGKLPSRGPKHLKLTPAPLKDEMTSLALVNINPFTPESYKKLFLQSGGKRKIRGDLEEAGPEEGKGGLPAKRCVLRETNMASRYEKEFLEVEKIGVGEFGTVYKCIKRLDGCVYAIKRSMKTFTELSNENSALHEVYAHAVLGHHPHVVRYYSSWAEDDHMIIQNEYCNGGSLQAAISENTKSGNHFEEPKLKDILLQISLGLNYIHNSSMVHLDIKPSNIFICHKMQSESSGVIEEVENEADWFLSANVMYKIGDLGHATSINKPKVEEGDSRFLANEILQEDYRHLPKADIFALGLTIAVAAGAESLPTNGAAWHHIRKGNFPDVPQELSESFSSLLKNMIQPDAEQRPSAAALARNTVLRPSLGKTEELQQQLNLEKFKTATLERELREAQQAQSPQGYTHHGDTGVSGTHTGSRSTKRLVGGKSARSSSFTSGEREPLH
Procedure, shortened: as §1

cKit(D816H)(h) = target: T34, cKit(D816H)(h) (Homo sapiens, UniProt P10721, D816H); details: read-out: Inhibition(%) @ 1 µM RK-019
T34 construct: purchased Eurofins Discovery Services (KinaseProfiler)
T34 sequence (P10721 26-976 D816H): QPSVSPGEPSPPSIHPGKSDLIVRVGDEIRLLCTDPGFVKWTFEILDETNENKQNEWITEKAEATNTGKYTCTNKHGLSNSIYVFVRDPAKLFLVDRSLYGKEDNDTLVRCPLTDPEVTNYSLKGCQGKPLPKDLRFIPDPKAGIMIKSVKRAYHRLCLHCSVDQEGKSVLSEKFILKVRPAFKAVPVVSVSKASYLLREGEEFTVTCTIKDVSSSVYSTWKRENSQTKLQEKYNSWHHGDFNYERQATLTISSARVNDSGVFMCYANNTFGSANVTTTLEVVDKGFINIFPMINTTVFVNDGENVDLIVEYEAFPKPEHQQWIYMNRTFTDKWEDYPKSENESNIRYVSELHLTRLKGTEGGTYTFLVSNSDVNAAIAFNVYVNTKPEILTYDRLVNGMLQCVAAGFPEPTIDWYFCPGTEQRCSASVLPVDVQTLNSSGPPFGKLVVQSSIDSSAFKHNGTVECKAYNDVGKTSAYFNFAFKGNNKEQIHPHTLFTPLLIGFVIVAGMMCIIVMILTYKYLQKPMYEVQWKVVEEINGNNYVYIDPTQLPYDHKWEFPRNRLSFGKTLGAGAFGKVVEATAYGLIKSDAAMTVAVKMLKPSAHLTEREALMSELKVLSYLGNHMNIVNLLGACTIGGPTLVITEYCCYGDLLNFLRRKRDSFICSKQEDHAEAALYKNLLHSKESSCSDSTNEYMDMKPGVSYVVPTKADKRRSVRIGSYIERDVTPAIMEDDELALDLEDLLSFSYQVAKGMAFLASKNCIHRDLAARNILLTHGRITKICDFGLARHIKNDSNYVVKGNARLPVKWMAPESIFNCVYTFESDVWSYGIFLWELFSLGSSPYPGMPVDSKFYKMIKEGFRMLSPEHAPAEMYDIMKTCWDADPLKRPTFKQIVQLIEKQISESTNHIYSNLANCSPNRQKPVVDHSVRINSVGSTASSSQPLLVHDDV
Procedure, shortened: as §1

cKit(V654A)(h) = target: T35, cKit(V654A)(h) (Homo sapiens, UniProt P10721, V654A); details: read-out: Inhibition(%) @ 1 µM RK-019
T35 construct: purchased Eurofins Discovery Services (KinaseProfiler)
T35 sequence (P10721 26-976 V654A): as the sequence (P10721 26-976 D816H) above, with V629A, H791D counted along it
Procedure, shortened: as §1

cSRC(h) = target: T36, cSRC(h) (Homo sapiens, UniProt P12931); details: read-out: Inhibition(%) @ 1 µM RK-019
T36 construct: purchased Eurofins Discovery Services (KinaseProfiler)
Procedure, shortened: as §1

SMILES: COc1cc(OC)cc(N(CCN[C@H](C)CO)c2ccc3ncc(-c4cnn(C)c4)c(=O)n3c2)c1 [RK-019, (R)-7-((3,5-dimethoxyphenyl) (2-((1-hydroxypropan-2-yl)amino)ethyl)amino)-3-(1-methyl-1H-pyrazol-4-yl)-4H-pyrido [1,2-a]pyrimidin-4-one]
- activity at 1 µM (ASK1(h)): 118%
- activity at 1 µM (CDK3/cyclinE(h)): 90%
- activity at 1 µM (CLK4(h)): 89%
- activity at 1 µM (DYRK2(h)): 94%
- activity at 1 µM (EGFR(T790M,L858R)(h)): 92%
- activity at 1 µM (EphA7(h)): 108%
- activity at 1 µM (FGFR1(h); FGFR1(h), read-out: Inhibition(%) @ 1 µM RK-019): -1%
- inhibition at 1 µM (FGFR1(h); FGFR1, 1 µM, read-out: inhibition (hit in panel)): > 90%
- activity at 1 µM (FGFR2(h); FGFR2(h), read-out: Inhibition(%) @ 1 µM RK-019): 1%
- inhibition at 1 µM (FGFR2(h); FGFR2, 1 µM, read-out: inhibition (hit in panel)): > 90%
- activity at 1 µM (GRK3(h)): 123%
- activity at 1 µM (IKKα(h)): 100%
- activity at 1 µM (MLK3(h)): 98%
- activity at 1 µM (MSK2(h)): 101%
- activity at 1 µM (MST1(h)): 121%
- activity at 1 µM (MST2(h)): 97%
- activity at 1 µM (MST3(h)): 122%
- activity at 1 µM (Met(h)): 97%
- activity at 1 µM (NEK4(h)): 109%
- activity at 1 µM (NLK(h)): 86%
- activity at 1 µM (PAK6(h)): 96%
- activity at 1 µM (PDGFRα(D842V)(h)): 22%
- activity at 1 µM (PDGFRβ(h)): 54%
- activity at 1 µM (PDHK2(h)): 104%
- activity at 1 µM (PRK1(h)): 105%
- activity at 1 µM (PRKG2(h)): 100%
- activity at 1 µM (Pim-2(h)): 98%
- activity at 1 µM (Pim-3(h)): 114%
- activity at 1 µM (SAPK2b(h)): 94%
- activity at 1 µM (STK25(h)): 66%
- activity at 1 µM (TSSK2(h)): 91%
- activity at 1 µM (Tec(h) activated): 96%
- activity at 1 µM (WNK1(h)): 95%
- activity at 1 µM (WNK3(h)): 110%
- activity at 1 µM (Wee1B(h)): 107%
- activity at 1 µM (cKit(D816H)(h)): 58%
- activity at 1 µM (cKit(V654A)(h)): 104%
- activity at 1 µM (cSRC(h)): 54%
